Data: PMC9313566 (Basic & Clinical Pharmacology & Toxicology, 2022)

biological target: haemoglobin (Hb) (Homo sapiens, UniProt P68871+P69905); assay: SPR; type: binding
Sequence (P69905 2-142): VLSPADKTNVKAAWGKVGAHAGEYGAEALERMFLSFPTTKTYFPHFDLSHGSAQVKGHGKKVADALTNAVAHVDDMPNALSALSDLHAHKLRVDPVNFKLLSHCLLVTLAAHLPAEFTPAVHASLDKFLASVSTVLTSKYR
Sequence (P68871 2-147): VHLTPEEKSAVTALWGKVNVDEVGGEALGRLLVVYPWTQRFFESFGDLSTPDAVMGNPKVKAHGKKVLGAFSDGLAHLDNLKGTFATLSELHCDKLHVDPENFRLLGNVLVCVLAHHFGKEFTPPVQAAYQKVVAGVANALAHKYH

Compared with `C/C1=C\CC[C@H](C)C(=O)C[C@@H](C(C)C)C(=O)C1` [curdione], `CC(C)=C1C/C=C(\C)CC/C=C(\C)CC1=O` [germacrone] is 20-fold higher in Kd: 3.8 µM for the first, 75.4 µM for the second.

Going from `C=C[C@]1(C)CC[C@@H](C(=C)C)C[C@H]1C(=C)C` [β-elemene] to `C/C1=C\Cc2c(C)coc2C/C(C)=C/CC1` [furanodiene], the Kd rises from 2.27 µM to 18.2 µM (8-fold).
